# Measurements as given in article PMC10761933, “Acquired and intrinsic resistance to vemurafenib in BRAF^V600E ‐driven melanoma brain metastases” (FEBS Open Bio, 2023).
# Where two headings read alike, the source gives them in different places.
# How the values were obtained:
# [1] = Oral vemurafenib plasma pharmacokinetics in tumor‐free WT and Abcb1a/b;Abcg2−/− FVB nude mice; assay type: in vivo; conditions: mean ± SD; for Cmax / Tmax / half-life: FVB nude, mouse, plasma, po; for half-life: read-out: t 1/2 (elimination half‐life) (converted)
# Method: To establish vemurafenib plasma kinetics, tumor‐free FVB WT, and Abcb1a/b;Abcg2 ^ −/− nude mice received vemurafenib orally (p.o.) by gavage at indicated doses. Elacridar (100 mg·kg^−1) was administrated p.o. by gavage 4 h before vemurafenib. Blood was sampled from the tail vein at 15 min, 1, 2, 4, 8, and 24 h after the administration. The plasma was obtained by centrifugation (5 min, 2000 g, 4 °C). Vemurafenib was extracted from plasma by diethyl ether liquid–liquid extraction. Extracts were dried using a Savant SpeedVac Concentrator (Thermo Fisher Scientific, Waltham, MA, USA), reconstituted in MeCN : water (30 : 70), and subjected to liquid chromatography/tandem mass spectrometry (LC/MS–MS) analysis. Vemurafenib‐^13C6 was used as an internal standard.
# The LC–MS/MS system consisted of an API 3000 mass spectrometer (Sciex, Framingham, MA, USA) coupled to an UltiMate 3000 LC System (Dionex, Sunnyvale, CA, USA). Samples were separated using a ZORBAX Extend‐C18 column (Agilent, Santa Clara, CA, USA), preceded by a Securityguard C18 precolumn (Phenomenex, Utrecht, the Netherlands). Elution was done using a mixture of mobile phase A (0.1% formic acid in water (v/v)) and mobile phase B (methanol) in a 5 min gradient from 20% to 95% B, followed by 95% B that was maintained for 3 min and then re‐equilibrated at 20% B. Multiple reaction monitoring parameters were 490.2/383.1 (vemurafenib) and 496.2/389.1 (vemurafenib‐^13C6). System control and data analysis were done using ANALYST ® 1.6.2 software (AB Sciex, Foster City, CA, USA).
# Pharmacokinetic parameters were calculated with PKSOLVER [30]. All comparisons involving more than two groups were analyzed by one‐way ANOVA followed by Bonferroni post hoc tests. Differences in fractions of ABC transporter‐expressing cells between brain and skin lesions were compared using the Binomial test in which the skin fraction was considered as expected and the brain fraction was considered as observed. Correlations were determined using simple linear regression. Kaplan–Meier curves were drawn using GRAPHPAD PRISM v7 (GraphPad Software, La Jolla, CA, USA), and statistically significant survival differences were determined using the log‐rank test. Statistical significance was accepted in all tests when P < 0.05.
# intracranial A375 tumors = test: Efficacy against intracranial A375 melanoma tumors (BLI, survival); assay type: in vivo, mice
# Method: (§1) For subcutaneous xenograft models, 30 μL of cell suspension containing 3 × 10^6 A375 cells was injected into both flanks of FVB WT and Abcb1a/b;Abcg2 ^ −/− nude mice. For xenograft MBM models, stereotactic intracranial injections (A375 and Mel57) or intracarotid injections (K1735) of melanoma cells were performed as described previously. For intracranial injections, FVB nude mice were injected intracranially with 2 μL of A375 or Mel57 cell suspension containing 1 × 10^5 cells 2 mm lateral, 1 mm anterior, and 3 mm ventral from the bregma. For intracarotid injections, 1 × 10^5 cells in 100 μL HBSS were injected in the left common carotid artery of C3H/HeN mice. Tumor growth was measured by bioluminescence imaging (BLI) for intracranial tumors and by caliper for subcutaneous tumors. The volume of subcutaneous tumors was calculated in mm^3 using the modified ellipsoid formula (volume = 0.5 × length × width^2). Bioluminescence images were acquired following i.p. D‐luciferin (150 mg·kg^−1; Promega) using an IVIS 200 or IVIS Spectrum system with LIVING IMAGE software v4.5 (both PerkinElmer, Waltham, MA, USA). Animals were stratified into treatment groups to achieve a similar mean bioluminescence reading within each cohort. The bioluminescence intensity of each individual animal on the day of the start of treatment (Day 0) was arbitrarily set at 100%. All subsequent measurements were recorded relative to this first measurement and converted to their log values. Mean ± standard error (SE) values were calculated and plotted in graphs.
# For the subcutaneous tumor model, therapy was initiated 2 weeks after implantation, when the tumor volume exceeded 40 mm^3. FVB WT and Abcb1a/b;Abcg2 ^ −/− nude mice (n = 8) received 25 and 10 mg·kg^−1 of vemurafenib daily, respectively. Control mice (n = 8) received vehicle. Tumor development was assessed by caliper twice a week. For the intracranial tumor model, treatment was started about 2 weeks after intracranial injection of tumor cells, when full‐blown tumors were present in all animals. WT and Abcb1a/b;Abcg2 ^ −/− nude mice received vehicle, 25 mg·kg^−1 vemurafenib, 10 mg·kg^−1 vemurafenib plus 100 mg·kg^−1 elacridar, or 10 mg·kg^−1 vemurafenib once daily for 10 consecutive days or in a 5 days on/2 days off/5 days on schedule, as indicated in the relevant figure panels. Tumor growth was monitored by BLI every 4 or 5 days. Mice were weighed daily weighed examined for abnormalities. The mice were humanely sacrificed based on BLI results or when weight loss exceeded 20% of the initial body weight.
# subcutaneous A375 tumors = test: Efficacy against subcutaneous A375 tumors (caliper); assay type: in vivo; conditions: 25 mg·kg^−1 in WT mice and 10 mg·kg^−1 in Abcb1a/b;Abcg2−/− mice, 13 consecutive days
# Method: as §1, with “Bioluminescence images were acquired following i.p. D‐luciferin (150 mg·kg^−1; Promega) using an IVIS 200 or IVIS Spectrum system with LIVING IMAGE software v4.5 (both PerkinElmer, Waltham, MA, USA).” left out, “The bioluminescence intensity of each individual animal on the day of the start of treatment (Day 0) was arbitrarily set at 100%.” left out
# For the subcutaneous tumor model, therapy was initiated 2 weeks after implantation, when the tumor volume exceeded 40 mm^3. […] Tumor development was assessed by caliper twice a week. […]
# [2] = Abcb1a/b;Abcg2−/− mice, 10 mg·kg^−1 p.o.
# [3] = Abcb1a/b;Abcg2−/− mice, 25 mg·kg^−1 p.o.
# [4] = 10 mg/kg, Abcb1a/b;Abcg2−/− mice, 10 mg·kg^−1 p.o.
# [5] = 10 mg/kg, WT mice, 10 mg·kg^−1 p.o. + elacridar 100 mg·kg^−1 p.o. 4 h before
# [6] = 25 mg/kg, Abcb1a/b;Abcg2−/− mice, 25 mg·kg^−1 p.o.
# [7] = 25 mg/kg, WT mice, 25 mg·kg^−1 p.o.
# [8] = WT mice, 10 mg·kg^−1 p.o. + elacridar 100 mg·kg^−1 p.o. 4 h before
smiles,measurement,setting,value
CCCS(=O)(=O)Nc1ccc(F)c(C(=O)c2c[nH]c3ncc(-c4ccc(Cl)cc4)cc23)c1F [vemurafenib],AUCplasma 0–4 h,[1]; [2],56 ± 7.2 µg·mL/h
same,AUCplasma 0–24 h,[1]; [2],230 ± 35 µg·mL/h
same,AUCplasma 0–∞,[1]; [2],250 ± 49 µg·mL/h
same,CL/F (apparent clearance after oral administration),[1]; [2],0.04 ± 0.006 L·kg/h
same,AUCplasma 0–4 h,[1]; [3],140 ± 16 µg·mL/h
same,AUCplasma 0–24 h,[1]; [3],530 ± 68 µg·mL/h
same,AUCplasma 0–∞,[1]; [3],610 ± 84 µg·mL/h
same,CL/F (apparent clearance after oral administration),[1]; [3],0.04 ± 0.006 L·kg/h
same,Cmax,[1]; [4],17000 ± 1700 ng/mL
same,Tmax,[1]; [4],2.8 ± 1.1 h
same,half-life,[1]; [4],6.7 ± 1.4 h
same,Tmax,[1]; [5],3.6 ± 0.9 h
same,half-life,[1]; [5],5.8 ± 0.6 h
same,Cmax,[1]; [5],12000 ± 1700 ng/mL
same,Cmax,[1]; [6],41000 ± 4500 ng/mL
same,Tmax,[1]; [6],1.9 ± 0.9 h
same,half-life,[1]; [6],8.5 ± 1.2 h
same,Cmax,[1]; [7],42000 ± 7700 ng/mL
same,Tmax,[1]; [7],2.6 ± 1.3 h
same,half-life,[1]; [7],2.1 ± 0.2 h
same,AUCplasma 0–4 h,[1]; [8],38 ± 5.7 µg·mL/h
same,AUCplasma 0–24 h,[1]; [8],180 ± 24 µg·mL/h
same,AUCplasma 0–∞,[1]; [8],190 ± 23 µg·mL/h
same,CL/F (apparent clearance after oral administration),[1]; [8],0.05 ± 0.006 L·kg/h
same,AUCplasma 0–4 h,"[1]; WT mice, 25 mg·kg^−1 p.o.",147 ± 28 µg·mL/h
same,AUCplasma 0–24 h,"[1]; WT mice, 25 mg·kg^−1 p.o.",390 ± 98 µg·mL/h
same,AUCplasma 0–∞,"[1]; WT mice, 25 mg·kg^−1 p.o.",390 ± 99 µg·mL/h
same,CL/F (apparent clearance after oral administration),"[1]; WT mice, 25 mg·kg^−1 p.o.",0.07 ± 0.017 L·kg/h
same,survival,"intracranial A375 tumors; Abcb1a/b;Abcg2−/− mice, 10 mg·kg^−1 q.d. × 10d",not significantly extended
same,tumor growth of intracranial A375 tumors,"intracranial A375 tumors; Abcb1a/b;Abcg2−/− mice, 10 mg·kg^−1 q.d. × 10d, first 3 days of treatment, regrowth under therapy afterwards",induced tumor regression
same,tumor growth of intracranial A375 tumors,"intracranial A375 tumors; Abcb1a/b;Abcg2−/− mice, two cycles of 5 days of 25 mg·kg^−1 daily oral",induced regression and subsequent tumor stasis
same,survival,"intracranial A375 tumors; Abcb1a/b;Abcg2−/− mice, two cycles of 5 days of 25 mg·kg^−1 daily oral, vs vehicle",a survival difference was already established
same,antitumor efficacy against intracranial A375 tumors with pharmacological P‐gp/BCRP inhibition vs Abcb1a/b;Abcg2−/− mice at same dose,"intracranial A375 tumors; WT mice, 10 mg·kg^−1 vemurafenib + 100 mg·kg^−1 elacridar",less efficacious
same,tumor growth of intracranial A375 tumors,"intracranial A375 tumors; WT mice, 25 mg·kg^−1 q.d. × 10d",only reduced A375 growth speed
same,"efficacy against subcutaneous A375 tumors, WT vs Abcb1a/b;Abcg2−/− mice",subcutaneous A375 tumors,equally effective
